{
  "source": "patent US20060122267A1",
  "about": "“Compositions and methods for attenuating mitochondria-mediated cell injury” (priority 2003, published 2006)",
  "key": {"mitochondrial proteins": {"tested_on": "mitochondrial proteins", "assay": "Biotin-switch analysis of mitochondrial protein S-nitrosation", "assay_type": "biochemical, rat", "settings": "for S-nitrosation of entire mitochondrial protein extract, comparison of NO donors: S-nitrosoglutathione 1 mM, DETA-NONOate 2 mM, ONOO- 3 additions of 100 μM, 37° C., 40 minutes", "method": "Rat heart mitochondria were isolated using differential centrifugation (Tompkins, et al. (2005) Biochim. Biophys. Acta PMID: 16278076). Protein was determined by the Folin-phenol method (Lowry, et al. (1951) J. Bio. Chem. 193:265-75) against a standard curve constructed using bovine serum albumin. Mitochondrial incubations and all subsequent steps were performed in the dark. One mg of mitochondrial protein was suspended in 1 mL of mitochondrial respiration buffer (Tompkins, et al. (2005) supra) containing respiratory substrates glutamate (5 mM), malate (2.5 mM) and succinate (5 mM). […] Samples were centrifuged (5 minutes, 14,000×g), and supernatants removed. The pellets were then resuspended in 1 mL of respiration buffer, and centrifuged again. Pellets were frozen in liquid N2 for subsequent analysis. For ONOO^− treatments, 4 μL of 25 mM ONOO^− stock (100 μM final concentration) was added the cap of the reaction tube, the cap quickly closed and the tube shaken immediately. The process was then repeated twice at 30 second intervals, for a total of 3 additions. Mitochondria were then pelleted, washed, and frozen as for S-nitrosoglutathione samples. Complex I activity was assayed as the rotenone-sensitive oxidation of NADH, at 340 nm in the presence of coenzyme Q1 (Borutaite, et al. (2000) supra). Complex IV was assayed by monitoring the cyanide-sensitive first-order oxidation of reduced cytochrome c, at 550 nm according to established methods (Cleeter, et al. (1994) supra).\nFor biotin-switch analysis, intact mitochondrial pellets (1 mg protein solubilized in extraction buffer) or chromatography column fractions were analyzed in accordance with known methods (Jaffrey & Snyder (2001) supra). Samples were separated in duplicate on non-reducing SDS-PAGE gels; half the gel was stained with COOMASSIE® blue, and the other half blotted and probed with streptavidin-HRP and ECL™ detection (GE biosciences). Blots and stained gels were aligned, and S-nitrosated proteins excised, trypsinized, and identified by peptide mass fingerprinting. Mass spectra (MALDI-TOF) were analyzed using the MASCOT™ algorithm available on the world-wide web at matrixscience.com."}, "[1]": {"tested_on": "isolated adult rat cardiomyocytes", "assay": "Mitochondrial H+ leak in cardiomyocytes (respiration divided by TMRE fluorescence) after ischemia-reperfusion", "assay_type": "cell-based", "settings": "doses that protect cardiomyocyte viability", "method": "Cardiomyocyte respiration rate was measured with an oxygen electrode, and membrane potential with the fluorescent dye TMRE (20 nM) in a fluorimeter. H^+ leak is essentially the amount of work the respiratory chain must do to maintain a given membrane potential, and experimentally is derived by dividing respiration by TMRE fluoresence. […] All data are means±SEM, N>3.\nAdult rat cardiomyocytes were prepared by collagenase perfusion according to standard methods (Dai, et al. (2001) supra), yielding ˜4×10^6 cells per heart, >80% rod-shaped and viable. Incubations were in a shaking water bath at 37° C., each utilizing 5×10^5 cells in 5 mL of the KH buffers described below. For the control, cells were incubated for 2 hours in oxygenated KH buffer (95/5 O2/CO2). For ischemia-reperfusion treatment, cells were subjected to 30 minutes in oxygenated KH buffer, 1 hour in “ischemic” KH buffer (95/5 N2/CO2, pH 6.5, no glucose), and 30 minutes in oxygenated KH buffer. […] At the end of each protocol, cell viability was assayed (Trypan blue), and mitochondrial function determined (measurement of ΔΨm with the fluorescent probe TMRE, respiration with an O2 electrode, and S-nitrosothiol content by chemiluminescence and biotin-switch."}, "perfused rat hearts": {"tested_on": "perfused rat hearts", "assay": "Langendorff isolated perfused rat heart model of ischemia-reperfusion injury", "settings": "10 μM infused during equilibration; 25 minutes global ischemia, 30 minutes reperfusion; dark", "method": "Hearts were perfused in constant flow mode, with Krebs-Henseleit (KH) buffer, gassed with 95/5 O2/CO2. Following equilibration (during which S-nitroso-2-mercaptopropylglycine was infused at 10 μM final concentration), global ischemia was imposed for 25 minutes, followed by 30 minutes of reperfusion. Cardiac functional parameters were measured throughout, with a left-ventricular balloon attached to a pressure transducer. Recovery of rate pressure product (RPP, i.e., left ventricular developed pressure multiplied by heart rate) was greater in S-nitroso-2-mercaptopropylglycine treated hearts. Control hearts in these experiments were subject to dark conditions.\nRat hearts were perfused according to methods well-known in the art (Digerness, et al. (2003) J. Thorac. Cardiovasc. Surg. 125:863-871), with Krebs-Henseleit (KH) buffer, gassed with 95/5 O2/CO2. […] Cardiac functional parameters (left ventricular pressure, rate pressure product, oxygen consumption, diastolic stiffness, etc.) were measured throughout, and mitochondria were isolated at the end of the procedure. Several mitochondrial parameters are then determined including respiration, Ca^2+ loading capacity, reactive oxygen species generation, permeability transition pore opening threshold, respiratory complex activities (Brookes, et al. (2002) Methods Enzymol. 359:305-319), and protein S-nitrosation as disclosed herein."}, "[2]": {"tested_on": "isolated adult rat cardiomyocytes", "assay": "Cardiomyocyte model of ischemia-reperfusion injury, cell viability by Trypan blue exclusion", "assay_type": "cell-based", "method": "Isolated adult rat cardiomyocytes were subjected to 1 hour ischemia (anoxic, glucose free medium, pH 6.5) followed by 30 minutes reoxygenation (labeled “HR”). Cell viability was assayed by Trypan blue exclusion. […] All data are means±SEM, N>3.\nAdult rat cardiomyocytes were prepared by collagenase perfusion according to standard methods (Dai, et al. (2001) supra), yielding ˜4×10^6 cells per heart, >80% rod-shaped and viable. Incubations were in a shaking water bath at 37° C., each utilizing 5×10^5 cells in 5 mL of the KH buffers described below. For the control, cells were incubated for 2 hours in oxygenated KH buffer (95/5 O2/CO2). For ischemia-reperfusion treatment, cells were subjected to 30 minutes in oxygenated KH buffer, 1 hour in “ischemic” KH buffer (95/5 N2/CO2, pH 6.5, no glucose), and 30 minutes in oxygenated KH buffer. For the ischemia-reperfusion injury and test compound group of cells, ischemia-reperfusion injury was carried out as described above with test compound present during the 30 minute equilibration prior to ischemia-reperfusion and absent during ischemia. […] At the end of each protocol, cell viability was assayed (Trypan blue), and mitochondrial function determined (measurement of ΔΨm with the fluorescent probe TMRE, respiration with an O2 electrode, and S-nitrosothiol content by chemiluminescence and biotin-switch."}, "[3]": {"tested_on": "cell and organ models of ischemia-reperfusion", "settings": "cited from earlier work"}, "[4]": {"settings": "cited from earlier work"}},
  "note": "“Also recorded” adds a separate entry of the source.",
  "data": [
    {"smiles": "O=NOO", "note": "[ONOO^−, peroxynitrite]", "values": [
      {"measurement": "S-nitrosation of entire mitochondrial protein extract, comparison of NO donors", "setting": "mitochondrial proteins", "value": "S-nitrosoglutathione resulted in far more S-nitrosation than DETA-NONOate or ONOO^−"}
    ]},
    {"smiles": "CC(SN=O)C(=O)NCC(=O)O", "note": "(stereo not shown)", "values": [
      {"measurement": "effect on increase in mitochondrial H+ leak induced by ischemia-reperfusion", "setting": "[1]", "value": "prevent large increases in H^+ leak; also recorded: protect against the large increase in proton leak"},
      {"measurement": "S-nitrosation of mitochondrial proteins compared with S-nitrosoglutathione", "setting": "mitochondrial proteins; same concentrations, 10-100 μM", "value": "much greater degree of S-nitrosation of mitochondrial proteins than did S-nitrosoglutathione"},
      {"measurement": "recovery of rate pressure product (RPP) after ischemia-reperfusion versus control hearts", "setting": "perfused rat hearts", "value": "greater"},
      {"measurement": "protection of cardiomyocyte viability from ischemia-reperfusion injury", "setting": "[2]; 10 μM or 20 μM, 1 hour ischemia, 30 minutes reoxygenation", "value": "dose-dependent and significant protection"},
      {"measurement": "protection of cardiomyocyte viability compared with ischemic preconditioning (IPC)", "setting": "[2]; higher dose, 20 μM", "value": "more effective than IPC"}
    ]},
    {"smiles": "NCCN(CCN)/[N+]([O-])=N/O", "note": "[DETA-NONOate]", "values": [
      {"measurement": "S-nitrosation of entire mitochondrial protein extract, comparison of NO donors", "setting": "mitochondrial proteins", "value": "S-nitrosoglutathione resulted in far more S-nitrosation than DETA-NONOate or ONOO^−"}
    ]},
    {"smiles": "CC(S)C(=O)NCC(=O)O", "note": "(stereo not shown) [2-mercaptopropionylglycine, 2-Mercaptopropionylglycine]", "values": [
      {"measurement": "concentrations required to elicit protection", "setting": "[3]", "value": "0.3 to 1.0", "unit": "mM"},
      {"measurement": "bioavailability", "setting": "[4]; in vivo", "value": "bioavailable"},
      {"measurement": "cellular and mitochondrial distribution", "setting": "[4]; radioactive tracer, whole animals", "value": "readily enters cells and accumulates in mitochondria"}
    ]}
  ]
}
